# Data as given in patent US20080124718A1, “METHODS OF DIAGNOSING, PREDICTING THERAPEUTIC EFFICACY AND SCREENING FOR NEW THERAPEUTIC AGENTS FOR LEUKEMIA” (Panacea Pharmaceuticals, Inc., priority 2006, published 2008).
# Where a name gives a salt, the structure may show the parent alone.
# What was measured:
# [1] = tested on: human aspartyl (asparaginyl) β-hydroxylase (HAAH) mRNA expression; assay: HAAH mRNA expression (qRT-PCR) in patient leukocytes cultured with or without imatinib; type: cell-based; conditions: 1 μM imatinib, 24 hours, vs untreated cells
# Excerpt: This assay procedure allows the quantitative comparison of test RNA to a standard curve using single tube TaqMan® reactions.
# Analyze as described in Perkin Elmer sequence detection system manual. A standard amplification curve of ASPH-B was obtained previously, to which unknown samples are compared to obtain the number of copies of HAAH mRNA in the sample.
# Patient leukocytes were isolated from patient blood samples and grown in culture in the presence or absence of imatinib mesylate. After overnight incubation, qRT-PCR was used to determine human aspartyl (asparaginyl) β-hydroxylase (HAAH) mRNA expression in both treated and untreated cells. Percentage decrease in mRNA expression level is determined by comparing expression levels in treated vs. non-treated leukocytes from each individual patient.
# […]. This percentage change is consistent with a prediction of sensitivity to imatinib mesylate, based on numerous studies done by the present inventors. […].
# [2] = tested on: gastrointestinal stromal tumor (GIST) cells, which express an activating c-kit mutation; conditions: in vitro; cited from earlier work
compound,measurement,setting,value
"Cc1ccc(NC(=O)c2ccc(CN3CCN(C)CC3)cc2)cc1Nc1nccc(-c2cccnc2)n1 [imatinib, Imatinib mesylate]",decrease in HAAH expression after culture in the presence of imatinib,[1]; leukocytes of 27 CML patients (later responders),30-75%
same,reduction in HAAH transcript levels after culture in the presence of imatinib,[1]; leukocytes of the 12 other CML patients (non-responders),< 25%
same,apoptosis,[2],induces apoptosis
same,proliferation,[2],inhibits proliferation
